Assay results reported in patent US4143032A, “Hexapeptides having analgesic activities” (American Home Products Corporation, priority 1977, dated 1979).
Non-standard residues stand in square brackets, D forms with d. Residues, ends and D or L forms follow the SMILES beside them.

Columns and labels:
rats [1] = experiment: rat-tail flick method of D'Amour and Smith (analgesic activity); format: in vivo; conditions: single dose
Procedure: In this procedure, a single intravenous dose of from 0.5 to 20 mg/kg., will produce analgesia in the rat. Preferably, a dose of from 1 to 10 mg/kg. is employed. The exact dose to be employed will vary depending on the particular compound employed and the degree of analgesia desired. The determination of the precise dose to produce the desired effect will be readily ascertained by those skilled in the art. With representative compound H-Arg-Tyr-D-Ala-Gly-Phe-D-Leu-NH2, the following results were obtained: […]

guinea pig ileum = conditions: cited from earlier work
rats [2] = conditions: injection in the brain ventricle in rats; fully reversible by naloxone; cited from earlier work
opiate receptor = conditions: brain homogenates; cited from earlier work
mouse vas deferens = conditions: cited from earlier work
[3] = peripheral administration, for example intravenous; cited from earlier work
[4] = administered intracerebroventricularly; cited from earlier work

## CC(=O)O.CC(=O)O.CC(C)C[C@@H](NC(=O)[C@H](Cc1ccccc1)NC(=O)CNC(=O)[C@@H](C)NC(=O)[C@H](Cc1ccc(O)cc1)NC(=O)[C@@H](N)CCCNC(=N)N)C(N)=O [H-Arg-Tyr-D-Ala-Gly-Phe-D-Leu-NH2, L-Arginyl-L-Tyrosyl-D-Alanyl-Glycyl-L-Phenylalanyl-D-Leucyl Amide Diacetate] (H-RY[dA]GF[dL]-NH2)
Rats [1]; 1.0 mg/kg. i.v.
  No. Showing Analgesic/No. Tested: 2/6
Rats [1]; 2.5 mg/kg. i.v.
  No. Showing Analgesic/No. Tested: 2/6
Rats [1]; 5 mg/kg. i.v.
  No. Showing Analgesic/No. Tested: 6/6

## H-Tyr-Gly-Gly-Phe-Leu-OH [leucine-enkephalin]
Guinea pig ileum
  ability to block electrically evoked contractions: block electrically evoked contractions
Rats [2]
  analgesia: induce a profound analgesia
Opiate receptor
  inhibition of stereospecific receptor binding of 3H-naloxone: inhibit the stereospecific receptor binding
Mouse vas deferens
  ability to block electrically evoked contractions: block electrically evoked contractions
[3]
  peripheral activity: inactive peripherally

## H-Tyr-Gly-Gly-Phe-Met-OH [methionine-enkephalin]
Guinea pig ileum
  ability to block electrically evoked contractions: block electrically evoked contractions
Rats [2]
  analgesia: induce a profound analgesia
Opiate receptor
  inhibition of stereospecific receptor binding of 3H-naloxone: inhibit the stereospecific receptor binding
Mouse vas deferens
  ability to block electrically evoked contractions: block electrically evoked contractions
[3]
  peripheral activity: inactive peripherally

## Tyr-D-Ala-Gly-Phe-D-Leu
[4]
  activity: activity
